The results in this text go back to patent US20210040062A1, “AZOLE-SUBSTITUTED PYRIDINE COMPOUND” (TAISHO PHARMACEUTICAL CO., LTD., priority 2016, published 2021).

One assay has as its target T1, human CYP4F2 (Homo sapiens, UniProt P78329).
T1 construct: host or cells: Escherichia coli (membrane fraction)
T1 sequence (P78329 5-520): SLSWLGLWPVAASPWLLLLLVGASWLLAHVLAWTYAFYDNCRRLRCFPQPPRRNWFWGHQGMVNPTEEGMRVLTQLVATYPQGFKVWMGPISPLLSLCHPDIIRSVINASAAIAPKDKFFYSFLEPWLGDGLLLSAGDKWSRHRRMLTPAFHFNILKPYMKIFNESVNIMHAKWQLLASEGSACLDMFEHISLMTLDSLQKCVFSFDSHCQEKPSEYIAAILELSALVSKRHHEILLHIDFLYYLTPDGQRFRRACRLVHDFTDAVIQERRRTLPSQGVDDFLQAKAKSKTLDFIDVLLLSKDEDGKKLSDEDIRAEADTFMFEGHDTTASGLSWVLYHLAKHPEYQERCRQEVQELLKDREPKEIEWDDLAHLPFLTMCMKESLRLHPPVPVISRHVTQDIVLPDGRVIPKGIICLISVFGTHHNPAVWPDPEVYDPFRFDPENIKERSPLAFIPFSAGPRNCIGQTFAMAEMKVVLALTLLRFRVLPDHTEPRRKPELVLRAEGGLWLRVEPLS
Nature of the assay: CYP4F2 inhibition test (Test Example 1). It counts as biochemical. The note with it: Escherichia coli membrane fraction expressing human CYP4F2, 2.5 μM luciferine derivative, room temperature 60 minutes, luminescence. The essentials: (§1)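 E. coli membranes expressing human enzyme (100 μg/mL protein) with luciferin-derivative substrate, 60 min at room temperature, then luminescence read. CYP4F2: 50 mM KPO4 pH 7.4, 2.5 μM substrate, 1 mM NADPH. CYP4A11: 100 mM Tris-HCl pH 7.5, 60 μM substrate, NADP+/glucose 6-phosphate regenerating system.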

A further assay has as its target T2, human CYP4A11 (Homo sapiens, UniProt Q02928).
T2 construct: host or cells: Escherichia coli (membrane fraction)
T2 sequence (Q02928 5-519): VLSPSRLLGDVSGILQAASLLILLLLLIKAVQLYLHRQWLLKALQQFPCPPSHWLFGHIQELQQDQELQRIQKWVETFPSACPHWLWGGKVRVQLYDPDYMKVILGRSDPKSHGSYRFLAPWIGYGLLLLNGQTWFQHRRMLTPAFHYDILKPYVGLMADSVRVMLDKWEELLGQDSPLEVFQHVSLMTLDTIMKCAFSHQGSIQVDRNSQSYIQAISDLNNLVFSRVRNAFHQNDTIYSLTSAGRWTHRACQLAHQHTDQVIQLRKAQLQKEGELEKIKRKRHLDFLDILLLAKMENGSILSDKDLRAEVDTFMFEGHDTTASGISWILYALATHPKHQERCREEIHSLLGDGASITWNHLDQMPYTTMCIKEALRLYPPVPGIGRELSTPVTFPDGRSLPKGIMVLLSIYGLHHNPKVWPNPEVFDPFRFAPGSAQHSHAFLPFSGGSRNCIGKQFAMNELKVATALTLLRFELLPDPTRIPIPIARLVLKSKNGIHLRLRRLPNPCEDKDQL
Put plainly: CYP4A11 inhibition test (Test Example 1). The format is biochemical. The note with it: Escherichia coli membrane fraction expressing human CYP4A11, 60 μM luciferine derivative, room temperature 60 minutes, luminescence. The essentials: as §1

In the case of `CS(=O)(=O)c1cc(F)cc(COc2ccc(-c3ccn[nH]3)nc2)c1` [Example 16-5], the IC50 (usually the concentration that gives 50% inhibition) at human CYP4F2 stood at 310 nM; against human CYP4A11, 79 nM.

As to `CC(=O)N(C)[C@H]1C[C@@H](COc2ccc(-c3ccn[nH]3)nc2)C1` [Example 17-1-1, N-Methyl-N-[cis-3-({[6-(1H-pyrazol-5-yl)pyridin-3-yl]oxy}methyl)cyclobutyl]acetamide], the IC50 amounted to 20 nM against human CYP4F2 and 2000 nM against human CYP4A11.

With `CC(=O)N(C)[C@H]1C[C@H](COc2ccc(-c3ccn[nH]3)nc2)C1` [Example 17-1-2, N-Methyl-N-[trans-3-({[6-(1H-pyrazol-5-yl)pyridin-3-yl]oxy}methyl)cyclobutyl]acetamide], the 50% inhibitory concentration (IC50) against human CYP4F2 is 19 nM; against human CYP4A11, 2700 nM.

Take `CN(C)S(=O)(=O)c1cc(COc2ccc(-c3ccn[nH]3)nc2)ccc1F` [Example 18-1, 2-Fluoro-N,N-dimethyl-5-({[6-(1H-pyrazol-5-yl)pyridin-3-yl]oxy}methyl)benzene-1-sulfonamide]: the half-maximal inhibitory concentration (IC50) against human CYP4F2 is 140 nM; against human CYP4A11 it was 18 nM.

Turning to `CN(C)S(=O)(=O)c1cc(COc2ccc(-c3ccn[nH]3)nc2)ccc1Cl` [Example 18-2], the IC50 was 140 nM against human CYP4F2 and 58 nM against human CYP4A11.

Take `O=S(=O)(CC1CC1)c1cccc(COc2ccc(-c3ccn[nH]3)nc2)c1` [Example 18-3]: the IC50 against human CYP4F2 is 27 nM; at human CYP4A11, 24 nM.

`O=C(CS(=O)(=O)c1cccc(COc2ccc(-c3ccn[nH]3)nc2)c1)N1CCC1` [Example 18-4]: the IC50 against human CYP4F2 was 85 nM; against human CYP4A11, 76 nM.

With `O=C(CS(=O)(=O)c1cccc(COc2ccc(-c3ccn[nH]3)nc2)c1)N1CCCC1` [Example 18-5], the results for the IC50 on human CYP4F2 and on human CYP4A11 were 47 nM and 140 nM, respectively.

`CCS(=O)(=O)c1cccc(COc2ccc(-c3ccn[nH]3)nc2)c1` [Example 18-6]: the IC50 against human CYP4F2 was 93 nM; at human CYP4A11, 27 nM.

For the compound `CC(C)(C)OC(=O)Nc1cccc(COc2ccc(-c3ccn[nH]3)nc2)c1` [Example 18-7], the IC50 at human CYP4F2 stood at 95 nM; against human CYP4A11 it was 230 nM.

Consider `CS(=O)(=O)c1cccc(COc2ccc(-c3ccn[nH]3)nc2)c1` [Example 18-8, 5-[(3-Methylsulfonylphenyl)methoxy]-2-(1H-pyrazol-5-yl)pyridine], for which the IC50 worked out at 260 nM against human CYP4F2 and 63 nM against human CYP4A11.

As to `Nc1cccc(COc2ccc(-c3ccn[nH]3)nc2)c1` [Example 19-1, 3-({[6-(1H-Pyrazol-5-yl)pyridin-3-yl]oxy}methyl)aniline], the IC50 against human CYP4F2 came out at 46 nM; on human CYP4A11, 620 nM.

Take `CC(=O)N1CC[C@@H](COc2ccc(-c3ccn[nH]3)nc2)C1` [Example 20-1, 1-[(3R)-3-({[6-(1H-Pyrazol-5-yl)pyridin-3-yl]oxy}methyl)pyrrolidin-1-yl]ethan-1-one]: the 50% inhibitory concentration (IC50) on human CYP4F2 is 240 nM; against human CYP4A11, 1600 nM.

Regarding `CC(=O)N1CC[C@H](COc2ccc(-c3ccn[nH]3)nc2)C1` [Example 20-2], the half-maximal inhibitory concentration (IC50) against human CYP4F2 came to 240 nM; against human CYP4A11 it was 1600 nM.

With `CC(=O)N1CCC[C@@H]1CCOc1ccc(-c2ccn[nH]2)nc1` [Example 20-3, 1-[(2R)-2-(2-{[6-(1H-Pyrazol-5-yl)pyridin-3-yl]oxy}ethyl)pyrrolidin-1-yl]ethan-1-one], the concentration for half-maximal inhibition (IC50) against human CYP4F2 amounted to 2800 nM; on human CYP4A11 it was 1400 nM.

Regarding `CC(=O)N(C)[C@H]1CC[C@@H](Oc2ccc(-c3ccn[nH]3)nc2)CC1` [Example 20-4], the IC50 against human CYP4F2 stood at 180 nM; at human CYP4A11 it was 2400 nM.

Turning to `CC(=O)N(C)[C@H]1CC[C@H](Oc2ccc(-c3ccn[nH]3)nc2)CC1` [Example 20-5], the half-inhibitory concentration (IC50) against human CYP4F2 was 150 nM; against human CYP4A11 it was 6400 nM.

As for `CC(=O)N[C@H]1CC[C@@H](Oc2ccc(-c3ccn[nH]3)nc2)CC1` [Example 20-6], the half-inhibitory concentration (IC50) against human CYP4F2 was determined as 310 nM; against human CYP4A11, 22000 nM.

In the case of `CC(=O)N[C@H]1CC[C@H](Oc2ccc(-c3ccn[nH]3)nc2)CC1` [Example 20-7], the concentration for half-maximal inhibition (IC50) on human CYP4F2 worked out at 69 nM; on human CYP4A11, 35000 nM.

For `CC(=O)NCC12CC(COc3ccc(-c4ccn[nH]4)nc3)(C1)C2` [Example 21-1, N-{[3-({[6-(1H-Pyrazol-5-yl)pyridin-3-yl]oxy}methyl)bicyclo[1.1.1]pentan-1-yl]methyl}acetamide], the figures for the IC50 on human CYP4F2 and against human CYP4A11 were 150 nM and 1200 nM, respectively.

Regarding `CC(=O)N(C)CC12CC(COc3ccc(-c4ccn[nH]4)nc3)(C1)C2` [Example 22-1, N-Methyl-N-{[3-({[6-(1H-pyrazol-5-yl)pyridin-3-yl]oxy}methyl)bicyclo[1.1.1]pentan-1-yl]methyl}acetamide], the values for the concentration for half-maximal inhibition (IC50) on human CYP4F2 and on human CYP4A11 were 19 nM and 390 nM, respectively.

Regarding `CC(=O)N1CCC(COc2ccc(-c3[nH]ncc3F)nc2)CC1` [Example 23-1, 1-[4-({[6-(4-Fluoro-1H-pyrazol-5-yl)pyridin-3-yl]oxy}methyl)piperidin-1-yl]ethan-1-one], the IC50 against human CYP4F2 was 13 nM; against human CYP4A11, 71 nM.

In the case of `Clc1cn[nH]c1-c1ccc(OCC2CCOCC2)cn1` [Example 23-5], the IC50 against human CYP4F2 worked out at 61 nM; at human CYP4A11 it was 52 nM.

Regarding `Clc1cn[nH]c1-c1ccc(OCCC2CCOCC2)cn1` [Example 23-6], the IC50 came to 170 nM at human CYP4F2 and 150 nM against human CYP4A11.

In the case of `CC(=O)N1CCC(COc2cnc(-c3[nH]ncc3C)c(F)c2)CC1` [Example 24-2], the values for the IC50 at human CYP4F2 and on human CYP4A11 were 450 nM and 850 nM, respectively.

Take `CC(=O)N1CCC(COc2cnc(-c3ccn[nH]3)cc2C)CC1` [Example 24-3]: the IC50 at human CYP4F2 stood at 35 nM; at human CYP4A11 it was 120 nM.

As to `CC(=O)N1CCC(COc2ccc(-c3ccn[nH]3)nc2C)CC1` [Example 24-4], the values for the IC50 against human CYP4F2 and on human CYP4A11 were 590 nM and 8600 nM, respectively.

As for `COC(=O)N1CCC(CCOc2cnc(-c3ccn[nH]3)c(F)c2)CC1` [Example 24-6], the IC50 at human CYP4F2 was found to be 25 nM; against human CYP4A11 it was 64 nM.

For the compound `COc1cn[nH]c1-c1ccc(OCc2cccc(S(C)(=O)=O)c2)cn1` [Example 24-8], the concentration for half-maximal inhibition (IC50) was 2600 nM at human CYP4F2 and 440 nM against human CYP4A11.

With `CN(C)S(=O)(=O)c1ccc(COc2ccc(-c3ccn[nH]3)nc2)cc1` [Example 25-3, N,N-Dimethyl-4-{[6-(1H-pyrazol-5-yl)pyridin-3-yl]oxymethyl}benzenesulfonamide], the IC50 amounted to 140 nM on human CYP4F2 and 1700 nM at human CYP4A11.

In the case of `CS(=O)(=O)c1cccc(COc2cnc(-c3ccn[nH]3)c(F)c2)c1` [Example 25-5], the values for the IC50 at human CYP4F2 and on human CYP4A11 were 110 nM and 45 nM, respectively.

Turning to `FC(F)c1cc(COc2ccc(-c3ccn[nH]3)nc2)ccn1` [Example 25-6], the IC50 at human CYP4F2 is 62 nM; on human CYP4A11 it was 95 nM.

`FC(F)c1cncc(COc2ccc(-c3ccn[nH]3)nc2)c1` [Example 25-7]: the IC50 amounted to 57 nM against human CYP4F2 and 910 nM at human CYP4A11.

Consider `c1cc(-c2ccc(OCc3cncc(-n4nccn4)c3)cn2)[nH]n1` [Example 25-8], for which the 50% inhibitory concentration (IC50) on human CYP4F2 turned out to be 230 nM; against human CYP4A11 it was 2500 nM.

In the case of `c1cc(-c2ccc(OCc3ccnc(-n4cncn4)c3)cn2)[nH]n1` [Example 25-9], the IC50 against human CYP4F2 came to 12 nM; at human CYP4A11, 1300 nM.

For the compound `COc1ccc(COc2ccc(-c3ccn[nH]3)nc2)cc1S(C)(=O)=O` [Example 25-10], the IC50 against human CYP4F2 was 20 nM; at human CYP4A11 it was 1100 nM.

`O=c1ccc2cc(COc3ccc(-c4ccn[nH]4)nc3)ccc2o1` [Example 25-11]: the figures for the IC50 against human CYP4F2 and against human CYP4A11 were 3 nM and 1600 nM, respectively.

Consider `FC(F)(F)c1cc(COc2ccc(-c3ccn[nH]3)nc2)cc(C(F)(F)F)c1` [Example 25-12], for which the IC50 against human CYP4F2 worked out at 1600 nM; at human CYP4A11, 75 nM.

For the compound `CC1(C)Cc2cc(COc3ccc(-c4ccn[nH]4)nc3)cc(Cl)c2O1` [Example 25-13], the figures for the IC50 on human CYP4F2 and against human CYP4A11 were 190 nM and 36 nM, respectively.

On to `c1ccc2cc(COc3ccc(-c4ccn[nH]4)nc3)ccc2c1` [Example 25-14], for which the results for the IC50 on human CYP4F2 and against human CYP4A11 were 16 nM and 410 nM, respectively.

As for `c1cc(-c2ccc(OCc3ccc4nccnc4c3)cn2)[nH]n1` [Example 25-15], the IC50 against human CYP4F2 turned out to be 11 nM; on human CYP4A11, 2700 nM.
